Data published in patent US8188090B2, “Naphthylacetic acids” (Hoffman-La Roche Inc., priority 2008, dated 2012).
pIC50: −log10 of the molar value.

Target: T1, human CRTH2 (Homo sapiens, UniProt Q9Y5Y4)
T1 sequence (Q9Y5Y4 1-395): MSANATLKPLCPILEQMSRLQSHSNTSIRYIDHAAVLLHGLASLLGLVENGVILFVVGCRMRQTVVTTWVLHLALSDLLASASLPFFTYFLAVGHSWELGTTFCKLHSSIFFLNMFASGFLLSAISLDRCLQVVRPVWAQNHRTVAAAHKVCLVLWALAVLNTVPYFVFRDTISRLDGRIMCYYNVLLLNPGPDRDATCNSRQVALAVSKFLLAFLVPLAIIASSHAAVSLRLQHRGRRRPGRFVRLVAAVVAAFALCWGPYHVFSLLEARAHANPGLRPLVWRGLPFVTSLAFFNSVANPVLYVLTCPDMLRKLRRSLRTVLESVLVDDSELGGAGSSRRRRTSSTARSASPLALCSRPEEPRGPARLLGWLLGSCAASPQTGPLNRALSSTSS
Experiment: Human CRTH2 Receptor Binding Assay (whole cell, [3H]ramatroban)
Set-up: expressed in transfected cells; host or cells: CHO-K1
Conditions: whole CHO-K1 cells stably expressing human CRTH2 and G-alpha16; 20 nM [3H]ramatroban; 1 hour, room temperature
Excerpt: A whole cell receptor binding assay using [^3H]ramatroban as the competing radioactive ligand was employed to evaluate the compound binding activity to human CRTH2. The radioactive ligand [^3H]ramatroban was synthesized according to Sugimoto et. al. (Eur. J. Pharmacol. 524, 30-37, 2005) to a specific activity of 42 Ci/mmol.
A cell line stably expressing human CRTH2 was established by transfecting CHO-K1 cells with two mammalian expression vectors that harbored human CRTH2 and G-alpha16 cDNAs, respectively, using FuGene® 6 transfection reagent (from Roche). Stable clones expressing CRTH2 were selected by staining each clone with BM16 (BD Pharmingen™ from BD Biosciences, a division of Becton, Dickinson and Company), which is a rat monoclonal antibody to human CRTH2. The cells were maintained as monolayer cultures in Ham's F-12 medium containing 10% fetal bovine serum, 100 units/mL penicillin, 100 μg/mL streptomycin, 2 mM glutamine, 0.5 mg/mL G418 (geneticin) for CRTH2, and 0.2 mg/mL hygromycin-B (for G-alpha 16). For whole cell receptor binding assay, the monolayer cells were rinsed once with PBS (phosphate buffered saline), dissociated using ethylenediaminetetraacetate (Versene™ EDTA from Lonza Inc.), and suspended in PBS containing 10 mM MgCl2 and 0.06% BSA (bovine serum albumin) at 1.5×10^6 cells/mL.
The binding reactions (0.2 mL) were performed in 96-well plates at room temperature in PBS containing 1.5×10^5 cells, 10 mM MgCl2, 0.06% BSA, 20 nM [^3H]ramatroban, and test compound at various concentrations. After 1 hour of binding reactions, the cells were harvested on GF™/B filter microplates (microtiter plates with embedded glass fiber from PerkinElmer, Inc.) and washed 5 times with PBS using a Filtermate™ Harvester (a cell harvester that harvests and washes cells from microplates from PerkinElmer, Inc.). The radioactivities bound to the cells were determined using a microplate scintillation counter (TopCount® NXT, from PerkinElmer, Inc.) after adding 50 μL of Microscint™ 20 scintillation fluid (from PerkinElmer, Inc.) to each well of the filter plates. The radioactivity from non-specific binding was determined by replacing compound with 10 μM of 15(R)-15-methyl PGD2 (from Cayman Chemical Company) in the reaction mixtures. The radioactivity bound to the cells in the absence of compound (total binding) was determined by replacing compound with 0.25% of DMSO (dimethyl sulfoxide) in the reaction mixture. Specific binding data were obtained by subtracting the radioactivity of non-specific binding from each binding data.
The IC50 value is defined as the concentration of the tested compound that is required for 50% inhibition of total specific binding. In order to calculate the IC50 value, the percent inhibition data were determined for 7 concentrations for each compound. The percent inhibition for a compound at each concentration was calculated according to the following formula, [1-(specific binding in the presence of compound)/(total specific binding)]×100. The IC50 value was then obtained by fitting the percent inhibition data to a sigmoidal dose-response (4 parameter logistic) model in the XLfit® software Excel add-in program [from ID Business Solutions Ltd., model 205, where F(x)=(A+(B−A)/(1+((C/x)^D)))].

Row | Structure (SMILES) | pIC50
1 | Cc1c(CC(=O)O)cc2ccc(F)cc2c1C(=O)N1CCN(S(=O)(=O)c2ccccc2)CC1 [Example 1-9, [4-(4-Benzenesulfonyl-piperazine-1-carbonyl)-6-fluoro-3-methyl-naphthalen-2-yl]-acetic acid] | 8.43
2 | Cc1c(CC(=O)O)cc2ccc(F)cc2c1C(=O)N1CCN(S(=O)(=O)c2ccc(F)cc2)CC1 [Example 1-12, {6-Fluoro-4-[4-(4-fluoro-benzenesulfonyl)-piperazine-1-carbonyl]-3-methyl-naphthalen-2-yl}-acetic acid] | 8.08
3 | Cc1c(CC(=O)O)cc2ccc(F)cc2c1C(=O)N1CCN(S(=O)(=O)c2ccccc2F)CC1 [Example 1-14, {6-Fluoro-4-[4-(2-fluoro-benzenesulfonyl)-piperazine-1-carbonyl]-3-methyl-naphthalen-2-yl}-acetic acid] | 8.32
4 | Cc1c(CC(=O)O)cc2ccc(F)cc2c1C(=O)N1CC2(C1)CN(S(=O)(=O)Cc1ccccc1)C2 [Example 1-11, [6-Fluoro-3-methyl-4-(6-phenylmethanesulfonyl-2,6-diaza-spiro[3.3]heptane-2-carbonyl)-naphthalen-2-yl]-acetic acid] | 7.05
5 | Cc1c(CC(=O)O)cc2ccc(F)cc2c1C(=O)N1CCN(S(=O)(=O)c2ccc(F)cc2F)CC1 [Example 1-17, {4-[4-(2,4-Difluoro-benzenesulfonyl)-piperazine-1-carbonyl]-6-fluoro-3-methyl-naphthalen-2-yl}-acetic acid] | 8.43
6 | Cc1c(CC(=O)O)cc2ccc(F)cc2c1C(=O)N1CCN(S(=O)(=O)c2cccc(F)c2)CC1 [Example 1-16, {6-Fluoro-4-[4-(3-fluoro-benzenesulfonyl)-piperazine-1-carbonyl]-3-methyl-naphthalen-2-yl}-acetic acid] | 8.51
7 | Cc1c(CC(=O)O)cc2ccc(F)cc2c1C(=O)N1CCN(S(=O)(=O)C2CCCC2)CC1 [Example 1-8, [4-(4-Cyclopentanesulfonyl-piperazine-1-carbonyl)-6-fluoro-3-methyl-naphthalen-2-yl]-acetic acid] | 8.16
8 | Cc1c(CC(=O)O)cc2ccc(F)cc2c1C(=O)N1CCN(S(=O)(=O)C2CC2)CC1 [Example 1-6, [4-(4-Cyclopropanesulfonyl-piperazine-1-carbonyl)-6-fluoro-3-methyl-naphthalen-2-yl]-acetic acid] | 8.04

More lines, now with the values ahead:

Row | pIC50 | Structure (SMILES)
9 | 8.62 | O=C(O)Cc1cc(OC2CCN(S(=O)(=O)c3ccc(F)cc3)CC2)c2cc(F)ccc2c1 [Example 4-8, {6-Fluoro-4-[1-(4-fluoro-benzenesulfonyl)-piperidin-4-yloxy]-naphthalen-2-yl}-acetic acid]
10 | 6.97 | COc1ccc(N2CCN(C(=O)c3c(C)c(CC(=O)O)cc4ccc(F)cc34)CC2)cc1 [Example 2-12, {6-Fluoro-4-[4-(4-methoxy-phenyl)-piperazine-1-carbonyl]-3-methyl-naphthalen-2-yl}-acetic acid]
11 | 8.59 | Cc1c(CC(=O)O)cc2ccc(F)cc2c1C(=O)N1CCN(c2ccccn2)CC1 [Example 2-2, [6-Fluoro-3-methyl-4-(4-pyridin-2-yl-piperazine-1-carbonyl)-naphthalen-2-yl]-acetic acid]
12 | 8.52 | O=C(O)Cc1cc(OC2CCN(C(=O)Nc3cccc(F)c3)CC2)c2cc(F)ccc2c1 [Example 6-3, {6-Fluoro-4-[1-(3-fluoro-phenylcarbamoyl)-piperidin-4-yloxy]-naphthalen-2-yl}-acetic acid]
13 | 7.20 | Cc1c(CC(=O)O)cc2ccc(F)cc2c1C(=O)N1CCN(c2c(Cl)cncc2Cl)CC1 [Example 2-23, {4-[4-(3,5-Dichloro-pyridin-4-yl)-piperazine-1-carbonyl]-6-fluoro-3-methyl-naphthalen-2-yl}-acetic acid]
14 | 8.00 | Cc1c(CC(=O)O)cc2ccc(F)cc2c1C(=O)N1CCN(c2ccc(C(F)(F)F)cc2)CC1 [Example 2-19, {6-Fluoro-3-methyl-4-[4-(4-trifluoromethyl-phenyl)-piperazine-1-carbonyl]-naphthalen-2-yl}-acetic acid]
15 | 7.23 | Cc1c(CC(=O)O)cc2ccc(F)cc2c1C(=O)N1CCN(c2ccccc2)CC1 [Example 2-4, [6-Fluoro-3-methyl-4-(4-phenyl-piperazine-1-carbonyl)-naphthalen-2-yl]-acetic acid]
16 | 7.50 | O=C(O)Cc1cc(OC2CCN(C(=O)c3ccc(F)cc3)CC2)c2cc(F)ccc2c1 [Example 5-9, {6-Fluoro-4-[1-(4-fluoro-benzoyl)-piperidin-4-yloxy]-naphthalen-2-yl}-acetic acid]
17 | 7.18 | COc1cc(OC)cc(N2CCN(C(=O)c3c(C)c(CC(=O)O)cc4ccc(F)cc34)CC2)c1 [Example 2-14, {4-[4-(3,5-Dimethoxy-phenyl)-piperazine-1-carbonyl]-6-fluoro-3-methyl-naphthalen-2-yl}-acetic acid]
18 | 6.70 | Cc1c(CC(=O)O)cc2ccc(F)cc2c1C(=O)N1CCN(c2cc(C(F)(F)F)cc(C(F)(F)F)c2)CC1 [Example 2-11, {4-[4-(3,5-Bis-trifluoromethyl-phenyl)-piperazine-1-carbonyl]-6-fluoro-3-methyl-naphthalen-2-yl}-acetic acid]
19 | 7.95 | Cc1c(CC(=O)O)cc2ccc(F)cc2c1C(=O)N1CCN(c2ccc(C(F)(F)F)cn2)CC1 [Example 2-22, {6-Fluoro-3-methyl-4-[4-(5-trifluoromethyl-pyridin-2-yl)-piperazine-1-carbonyl]-naphthalen-2-yl}-acetic acid]
20 | 7.60 | O=C(O)Cc1cc(OC2CCN(S(=O)(=O)C3CC3)CC2)c2cc(F)ccc2c1 [Example 4-4, [4-(1-Cyclopropanesulfonyl-piperidin-4-yloxy)-6-fluoro-naphthalen-2-yl]-acetic acid]
21 | 6.92 | CCC(=O)N1CCC(Oc2cc(CC(=O)O)cc3ccc(F)cc23)CC1 [Example 5-2, [6-Fluoro-4-(1-propionyl-piperidin-4-yloxy)-naphthalen-2-yl]-acetic acid]
22 | 7.72 | Cc1c(CC(=O)O)cc2ccc(F)cc2c1C(=O)N1CCN(c2cccc(Cl)c2)CC1 [Example 2-21, {4-[4-(3-Chloro-phenyl)-piperazine-1-carbonyl]-6-fluoro-3-methyl-naphthalen-2-yl}-acetic acid]
23 | 7.20 | COc1cccc(N2CCN(C(=O)c3c(C)c(CC(=O)O)cc4ccc(F)cc34)CC2)c1 [Example 2-9, {6-Fluoro-4-[4-(3-methoxy-phenyl)-piperazine-1-carbonyl]-3-methyl-naphthalen-2-yl}-acetic acid]
24 | 7.66 | Cc1c(CC(=O)O)cc2ccc(F)cc2c1C(=O)N1CCN(c2cc(Cl)cc(Cl)c2)CC1 [Example 2-17, {4-[4-(3,5-Dichloro-phenyl)-piperazine-1-carbonyl]-6-fluoro-3-methyl-naphthalen-2-yl}-acetic acid]
25 | 7.66 | Cc1c(CC(=O)O)cc2ccc(F)cc2c1C(=O)N1CCN(c2ccc(C#N)cc2)CC1 [Example 2-24, {4-[4-(4-Cyano-phenyl)-piperazine-1-carbonyl]-6-fluoro-3-methyl-naphthalen-2-yl}-acetic acid]
26 | 8.00 | O=C(O)Cc1cc(OC2CCN(S(=O)(=O)C3CCCC3)CC2)c2cc(F)ccc2c1 [Example 4-5, [4-(1-Cyclopentanesulfonyl-piperidin-4-yloxy)-6-fluoro-naphthalen-2-yl]-acetic acid]
